System: monocytes
Assay: Hyperspectral autofluorescence imaging of monocytes isolated from treated ALS / motor neuron disease patients (LDA projection, response score)
Type: in vivo, human
Text: In the particular implementation presented here the “response vectors” were obtained using the following procedure. First, a discriminatory model was developed using a subset of the data based on two groups, the first group comprising the controls C1 C4 and two sets of patient data P2 and P6, while the second group comprising P1, P3, and P4. Second, all data from FIG. 4 was projected on the direction joining the centres of the two cell data clusters for the two groups defined above and a one-dimensional response vector was determined by a projection of each original cell vector from FIG. 4. These one-dimensional response vectors for all cells were presented in a box plot format (each symbol indicates a response vector for a different cell).
The box plots in FIGS. 5 and 6 comprise rectangles with three shades of grey. The thin line in the centre of the rectangle has the darkest shade of grey and represents the median value; the two stripes immediately adjacent to the centre line have the lightest shade of grey and represent the 95% confidence region (1.96×SEM); and the two stripes nearest to the ends of the rectangle have an intermediate shade of grey and represent the first standard deviation. If the light-grey regions of a cluster are not horizontally overlapping, one can be confident of having measured a difference. The values in the plot were shifted by a value of 1.3358, just for sake of placing the controls about zero, although this is an arbitrary shift and, in other examples, the values may be shifted by other amounts. Clusters may be classified according to their mean values: high values may be attributed to “diseased and unresponsive” state, intermediate values may be attributed to “normal”, and low values compared to normal may be interpreted as “drug affected”.
Blood samples were collected using Vacutainer® CPT™ Cell Preparation Tube (BD Australia, catalogue: 362760). 4 mls of whole blood from controls and MND patients were collected into the CPT tube via veinpuncture technique, using the standard technique for BD Vacutainer® Evacuated blood collection tubes. After collection, the tube/blood samples were centrifuged at room temperature (18-25° C.) in a horizontal rotor centrifuge for a minimum of 20 minutes at 1500 to 1800 RCF. After centrifugation, mononuclear cells and platelets located in a whitish layer (Buffy layer just under the plasma layer) were collected using a Pasteur pipette and transferred to a 15 mL size conical centrifuge tube.
Monocytes were isolated from collected buffy layer using a Pan Monocyte Isolation Kit, human (Miltenyi Biotec, catalogue: 130-096-537). The Monocyte Isolation Kit is an indirect magnetic labelling system for the isolation of untouched monocytes from human peripheral blood mononuclear cells (PBMCs). Non-monocytes, i.e. T cells, NK cells, B cells, dendritic cells and basophils, are indirectly magnetically labeled using a cocktail of biotin-conjugated antibodies against CD3, CD7, […], CD19, CD56, CD123 and Glycophorin A, and Anti-Biotin MicroBeads. Isolation of highly pure unlabelled monocytes is achieved by depletion of the magnetically labeled cells. […]

| SMILES | clustering of monocytes (autofluorescence spectral space) relative to healthy control (ALS Patient 1, before (T0) vs three weeks after (T1) start of treatment, FIG. 5(a)) | response score (one-dimensional projection), longitudinal testing (ALS Patients 1 and 2, T0 vs T1-T3 over the course of treatment, FIG. 5(c)) | position of treated patients' cell data in LDA projection (control space vs patient space) (FIG. 4, all patients and controls C1-C4) | position of patient cell data in LDA projection over consecutive tests (FIG. 4, patient (P5), Test1 to Test4) | range of response scores compared with healthy controls (eight other ALS patients (Patients 3-10), FIG. 6) |
| --- | --- | --- | --- | --- | --- |
| CN=C([S-])N/N=C(C)/C(C)=N/NC([S-])=NC.[Cu+2] [CuATSM, Copper ATSM] | normalised towards the healthy cells | statistically strong drug responses from time T1 onwards | appear in the control space or to the left hand side | progressively moving left (and less component 2) into the control/treated space | – |
| Nc1nc2ccc(OC(F)(F)F)cc2s1 [Riluzole] | – | – | – | – | much wider range of response scores than healthy controls |

Source: patent US20260094269A1, “DIAGNOSIS AND MONITORING OF NEURODEGENERATIVE DISEASES” (MACQUARIE UNIVERSITY, priority 2019, published 2026)
